According to PMC11544713, “The Application of Untargeted Metabolomic Approaches for the Search of Common Bioavailable Metabolites in Human Plasma Samples from Lippia citriodora and Olea europaea Extracts” (Journal of Agricultural and Food Chemistry, 2024):

Tests used:
[1] = Acute intervention: nutrikinetics of plasma metabolites after ingestion of L. citriodora extract (untargeted HPLC-ESI-QTOF-MS)
Procedure: (§1) A total of 25 healthy individuals participated, with an average age of 27 ± 9 years and a mean body mass index (BMI) of 23 ± 3 kg/m^2. None of the participants were taking any medications or nutritional supplements nor did they have any chronic diseases or gastrointestinal issues. The sample size was established based on findings from previous bioavailability research.[14] All participants provided informed consent before participating in the study.
(§2) The intervention study was carried out at Miguel Hernández University. Following an overnight fast, the volunteers were categorized into the subsequent groups: a subgroup to evaluate the LC leaf extract (n = 8), another for the OE leaf extract (n = 8), and the placebo subgroup (n = 9). This was a double-blind study, in which sample collection and treatment were carried out uniformly across all three subgroups.
(§3) Water was provided ad libitum. Prior to the ingestion of the capsule, a nurse inserted a cannula into the ulnar vein of each volunteer’s nondominant arm, and blood samples were drawn into EDTA-coated tubes at baseline (t = 0). Blood samples were then collected at 0.5, 1, 2, 4, 6, 8, and 10 h after the consumption of the 500 mg capsule. Plasma was separated through centrifugation (10 min at 3000 rpm and 4 °C) and stored at −80 °C until further analysis.
(§4) Plasma samples were initially treated using a mixture of methanol and ethanol (50:50; v:v) to remove proteins, following previously reported protocols.[19] During the sample treatment, pooled quality controls (pooled-QC) were prepared by combining equal aliquots from each sample. These QC samples were processed by using the same protocols as the experimental biological samples.
(§5) A reversed-phase analytical C18 column (Agilent Zorbax Eclipse Plus, 1.8 μm, 4.6 × 150 mm^2) with a protective cartridge with the same packing was used. MS data were acquired in negative ionization mode, operating in full scan across a mass-to-charge ratio (m/z) range of 50–1700. The analytical method used was adapted from that described by Villegas-Aguilar et al.[19]
(§6) Metabolite nutrikinetics were studied using PKSolver, an add-in program for pharmacokinetic data analysis in Microsoft Excel. The time to reach the maximum concentration (observed Tmax) was calculated for each significant metabolite. As an untargeted metabolomic approach was used to detect the circulating metabolites, these were not quantified. Therefore, the maximum concentration (Cmax) and area under the curve (AUC) parameters were calculated in a relative way by using the deconvoluted chromatographic areas. […] Statistical differences were determined by unpaired t tests. All p values less than 0.05 were considered statistically significant.

[2] = Acute intervention: nutrikinetics of plasma metabolites after ingestion of O. europaea extract (untargeted HPLC-ESI-QTOF-MS)
Procedure: as §1, §2, §3, §4, §5, §6

[3] = 0.5 h after L. citriodora extract
[4] = 1 h after L. citriodora extract
[5] = 2 h after L. citriodora extract
[6] = 4 h after L. citriodora extract
[7] = 6 h after L. citriodora extract
[8] = 8 h after L. citriodora extract
[9] = 10 h after L. citriodora extract
[10] = human plasma, 500 mg capsule of L. citriodora (LC) extract, oral, mean ± SD
[11] = 0.5 h after O. europaea extract
[12] = human plasma, 500 mg capsule of O. europaea (OE) extract, oral, mean ± SD

Molecule | AUC: area under the zero-moment curve ([1]; human, in vivo, po, 500 mg) | Cmax: relative maximum plasma level ([1]; human, in vivo, po, 500 mg) | observed Tmax: time required to reach Cmax ([1]; human, in vivo, po, 500 mg) [h] | mean chromatographic area in plasma, T0.5 ([1]; in vivo) | mean chromatographic area in plasma, T1 ([1]; in vivo) | mean chromatographic area in plasma, T2 ([1]; in vivo) | mean chromatographic area in plasma, T4 ([1]; in vivo) | mean chromatographic area in plasma, T6 ([1]; in vivo) | mean chromatographic area in plasma, T8 ([1]; in vivo) | mean chromatographic area in plasma, T10 ([1]; in vivo) | mean chromatographic area in plasma, T0.5 [1, 3] | mean chromatographic area in plasma, T1 [1, 4] | mean chromatographic area in plasma, T2 [1, 5] | mean chromatographic area in plasma, T4 [1, 6] | mean chromatographic area in plasma, T6 [1, 7] | mean chromatographic area in plasma, T8 [1, 8] | mean chromatographic area in plasma, T10 [1, 9] | AUC: area under the zero-moment curve [1, 10] | Cmax: relative maximum plasma level [1, 10] | observed Tmax: time required to reach Cmax [1, 10] [h] | other results
homovanillic acid sulfate [homovanillic acid sulfate isomer 2] | 1771 ± 1599 relative chromatographic area/h | 476 ± 363 relative chromatographic area | 9 ± 2 | 0 | 0 | 25 | 112 | 215 | 336 | 408 |  |  |  |  |  |  |  |  |  |  | Cmax: relative maximum plasma level ([2]; human, in vivo, po, 500 mg): 215 ± 68 relative chromatographic area; observed Tmax: time required to reach Cmax ([2]; human, in vivo, po, 500 mg): 4 ± 2 h; mean chromatographic area in plasma, T0.5 ([2]; in vivo): 0; mean chromatographic area in plasma, T1 ([2]; in vivo): 76; mean chromatographic area in plasma, T2 ([2]; in vivo): 161; mean chromatographic area in plasma, T4 ([2]; in vivo): 191; mean chromatographic area in plasma, T6 ([2]; in vivo): 182; mean chromatographic area in plasma, T8 ([2]; in vivo): 154; mean chromatographic area in plasma, T10 ([2]; in vivo): 130
Cc1cccc(O)c1O [3-methylcatechol] |  |  |  |  |  |  |  |  |  |  | 0 | 0 | 0 | 86 | 91 | 76 | 58 | 565 ± 407 relative chromatographic area/h | 169 ± 59 relative chromatographic area | 8 ± 3 | mean chromatographic area in plasma, T0.5 [2, 11]: 290; mean chromatographic area in plasma, T1 ([2]; 1 h after O. europaea extract): 235; mean chromatographic area in plasma, T2 ([2]; 2 h after O. europaea extract): 50; mean chromatographic area in plasma, T4 ([2]; 4 h after O. europaea extract): 64; mean chromatographic area in plasma, T6 ([2]; 6 h after O. europaea extract): 16; mean chromatographic area in plasma, T8 ([2]; 8 h after O. europaea extract): 13; mean chromatographic area in plasma, T10 ([2]; 10 h after O. europaea extract): 0; Cmax: relative maximum plasma level [2, 12]: 307 ± 160 relative chromatographic area; observed Tmax: time required to reach Cmax [2, 12]: 0.6 ± 0.2 h
hydroxytyrosol glucuronide [hydroxytyrosol glucuronide isomer 2] |  |  |  |  |  |  |  |  |  |  | 0 | 0 | 0 | 48 | 81 | 34 | 23 | 350 ± 158 relative chromatographic area/h | 106 ± 17 relative chromatographic area | 8 ± 2 | observed Tmax: time required to reach Cmax ([1]; human plasma, 500 mg capsule of L. citriodora (LC) extract, oral, mean ± SD, listed as hydroxytyrosol glucuronide): 7 ± 2 h; mean chromatographic area in plasma, T0.5 [2, 11]: 1726; mean chromatographic area in plasma, T1 ([2]; 1 h after O. europaea extract): 2553; mean chromatographic area in plasma, T2 ([2]; 2 h after O. europaea extract): 1437; mean chromatographic area in plasma, T4 ([2]; 4 h after O. europaea extract): 507; mean chromatographic area in plasma, T6 ([2]; 6 h after O. europaea extract): 251; mean chromatographic area in plasma, T8 ([2]; 8 h after O. europaea extract): 161; mean chromatographic area in plasma, T10 ([2]; 10 h after O. europaea extract): 75; Cmax: relative maximum plasma level [2, 12]: 2627 ± 1167 relative chromatographic area; observed Tmax: time required to reach Cmax [2, 12]: 0.9 ± 0.2 h; observed Tmax: time required to reach Cmax ([2]; human plasma, 500 mg capsule of O. europaea (OE) extract, oral, mean ± SD, listed as hydroxytyrosol glucuronide): 1 h
hydroxytyrosol sulfate [hydroxytyrosol sulfate isomer 2] |  |  |  |  |  |  |  |  |  |  | 0 | 0 | 138 | 289 | 575 | 591 | 686 | 3802 ± 2564 relative chromatographic area/h | 902 ± 428 relative chromatographic area | 8 ± 2 | observed Tmax: time required to reach Cmax ([1]; human plasma, 500 mg capsule of L. citriodora (LC) extract, oral, mean ± SD, listed as hydroxytyrosol sulfate): 7 ± 2 h; mean chromatographic area in plasma, T0.5 [2, 11]: 336; mean chromatographic area in plasma, T1 ([2]; 1 h after O. europaea extract): 646; mean chromatographic area in plasma, T2 ([2]; 2 h after O. europaea extract): 605; mean chromatographic area in plasma, T4 ([2]; 4 h after O. europaea extract): 202; mean chromatographic area in plasma, T6 ([2]; 6 h after O. europaea extract): 235; mean chromatographic area in plasma, T8 ([2]; 8 h after O. europaea extract): 140; mean chromatographic area in plasma, T10 ([2]; 10 h after O. europaea extract): 202; Cmax: relative maximum plasma level [2, 12]: 836 ± 359 relative chromatographic area; observed Tmax: time required to reach Cmax [2, 12]: 3 ± 3 h; observed Tmax: time required to reach Cmax ([2]; human plasma, 500 mg capsule of O. europaea (OE) extract, oral, mean ± SD, listed as hydroxytyrosol sulfate): 1 h
O=C(O)C=Cc1ccc(OS(=O)(=O)O)c(O)c1 (single isomer, unassigned; isomer 1) [caffeic acid 4-sulfate isomer 1, caffeic acid 4-sulfate] | 1157 ± 757 relative chromatographic area/h | 325 ± 147 relative chromatographic area | 3 ± 1 | 21 | 89 | 280 | 177 | 86 | 67 | 0 |  |  |  |  |  |  |  |  |  |  | 
O=C(O)CCCCCCCCC(=O)O [sebacic acid Isomer 2, sebacic acid] |  |  |  | 15 | 86 | 86 | 15 |  |  |  |  |  |  |  |  |  |  |  |  |  | 
COc1cc(CCCO)ccc1OC1OC(CO)C(O)C(O)C1O (single isomer, unassigned; isomer 1) [dihydroconiferin isomer 1, dihydroconiferin] |  |  |  |  |  |  |  |  |  |  | 44 | 137 | 0 | 0 | 0 | 0 | 0 | 126 ± 28 relative chromatographic area/h | 139 ± 19 relative chromatographic area | 0.9 ± 0.2 | 
pteroside Z [pteroside Z isomer 2] | 310 ± 84 relative chromatographic area/h | 181 ± 58 relative chromatographic area | 2 ± 1 | 28 | 152 | 97 | 18 | 0 | 0 | 0 |  |  |  |  |  |  |  |  |  |  | 
CC1=CC(=O)CC(C)(C)C1(O)/C=C/C(C)=C/COC1OC(CO)C(O)C(O)C1O (single isomer, unassigned; isomer 2) [abscisic alcohol 11-glucoside isomer 2, abscisic alcohol 11-glucoside] |  |  |  |  |  |  |  |  |  |  | 111 | 519 | 176 | 23 | 0 | 0 | 0 | 757 ± 174 relative chromatographic area/h | 562 ± 251 relative chromatographic area | 2 ± 1 | 
